According to the NIST ThermoML archive (doi:10.1016/j.jct.2018.11.011):

Assays:
[1] = Molar enthalpy of transition or fusion; conditions: Crystal; DSC

O=C([O][Sb]([c]1ccccc1)([c]1ccccc1)([c]1ccccc1)[c]1ccccc1)c1ccccc1 [tetraphenylantimony benzoate]
Conditions | Molar enthalpy of transition or fusion [kcal/mol]
[1] | 6.31

101.33 kPa
Conditions | mass density [kg/m3] | molar entropy [J/K/mol]
5 K, Crystal, Small (less than 1 g) adiabatic calorimetry | – | 0.567
10 K, Crystal, Small (less than 1 g) adiabatic calorimetry | – | 4.1
15 K, Crystal, Small (less than 1 g) adiabatic calorimetry | – | 11.1
20 K, Crystal, Small (less than 1 g) adiabatic calorimetry | – | 20.79
25 K, Crystal, Small (less than 1 g) adiabatic calorimetry | – | 31.83
30 K, Crystal, Small (less than 1 g) adiabatic calorimetry | – | 43.78
35 K, Crystal, Small (less than 1 g) adiabatic calorimetry | – | 56.29
40 K, Crystal, Small (less than 1 g) adiabatic calorimetry | – | 69.07
45 K, Crystal, Small (less than 1 g) adiabatic calorimetry | – | 81.95
50 K, Crystal, Small (less than 1 g) adiabatic calorimetry | – | 94.78
60 K, Crystal, Small (less than 1 g) adiabatic calorimetry | – | 120.2
70 K, Crystal, Small (less than 1 g) adiabatic calorimetry | – | 145.3
80 K, Crystal, Small (less than 1 g) adiabatic calorimetry | – | 169.9
90 K, Crystal, Small (less than 1 g) adiabatic calorimetry | – | 194.1
100 K, Crystal, Small (less than 1 g) adiabatic calorimetry | – | 217.6
120 K, Crystal, Small (less than 1 g) adiabatic calorimetry | – | 262.3
140 K, Crystal, Small (less than 1 g) adiabatic calorimetry | – | 305.1
160 K, Crystal, Small (less than 1 g) adiabatic calorimetry | – | 346.3
180 K, Crystal, Small (less than 1 g) adiabatic calorimetry | – | 386.3
200 K, Crystal, Small (less than 1 g) adiabatic calorimetry | – | 425.4
220 K, Crystal, Small (less than 1 g) adiabatic calorimetry | – | 463.9
240 K, Crystal, Small (less than 1 g) adiabatic calorimetry | – | 501.9
260 K, Crystal, Small (less than 1 g) adiabatic calorimetry | – | 539.8
273.15 K, Crystal, Small (less than 1 g) adiabatic calorimetry | – | 564.6
280 K, Crystal, Small (less than 1 g) adiabatic calorimetry | – | 577.5
298.15 K, Crystal, Small (less than 1 g) adiabatic calorimetry | – | 611.7
298.15 K, Crystal, X-ray diffraction | 1438 | –
300 K, Crystal, Small (less than 1 g) adiabatic calorimetry | – | 615.3
320 K, Crystal, Small (less than 1 g) adiabatic calorimetry | – | 653.4
340 K, Crystal, Small (less than 1 g) adiabatic calorimetry | – | 691
360 K, Crystal, Small (less than 1 g) adiabatic calorimetry | – | 729
380 K, Crystal, Small (less than 1 g) adiabatic calorimetry | – | 768
400 K, Crystal, Small (less than 1 g) adiabatic calorimetry | – | 807
420 K, Crystal, Small (less than 1 g) adiabatic calorimetry | – | 848
437.5 K, Crystal, Small (less than 1 g) adiabatic calorimetry | – | 881
437.5 K, Liquid, DSC | – | 940
440 K, Liquid, DSC | – | 948
460 K, Liquid, DSC | – | 989
480 K, Liquid, DSC | – | 1030

Conditions | Normal melting temperature [°C]
Crystal, DTA | 164.4
